{"source": "patent US10918126B2", "about": "“Isotopically modified compounds and their use as food supplements” (Retrotope, Inc., priority 2006, dated 2021)", "origin": "cited, not measured here", "key": {"[1]": {"molecular_target": "liver alcohol dehydrogenase (ADH)", "settings": "ethanol oxidation by ADH to acetaldehyde"}}, "note": "Read-outs that look alike come from different tables or passages of the source."}
{"substance": "(1-R)[I—^3H2]— ethanol", "values": [{"measurement": "kinetic isotope effect T(V/K)", "setting": "[1]; pH 6", "value": 6.5}, {"measurement": "kinetic isotope effect T(V/K)", "setting": "[1]; pH 9", "value": 2.5}]}
{"substance": "(1-R)[1-^2H2]— ethanol", "values": [{"measurement": "kinetic isotope effect D(V/K)", "setting": "[1]; pH 6", "value": 3}, {"measurement": "kinetic isotope effect D(V/K)", "setting": "[1]; pH 9", "value": 1.5}]}
{"substance": "deuterated ethanol", "values": [{"measurement": "mean value of D(V/K)", "setting": "perfused rat liver", "value": 2.89}]}
